In patent US20170304288A1, “Formulations of Methionine Aminopeptidase Inhibitors for Treating Infectious Diseases” (Texas Southern University, priority 2013, published 2017):

What follows are compounds tested on M. tuberculosis HN 3409. Settings: preliminary results, 29 days.
Format: cell-based, Mycobacterium tuberculosis

Compound	Multi-Drug Resistant Tuberculosis Strain HN3409
Oc1c(Cl)cc(Cl)c2cccnc12	<1.0 µg/mL
O=C1C(Br)=C(Br)C(=O)c2ccccc21	<25.0 µg/mL
O=C1C(Cl)=C(Cl)C(=O)c2ccccc21	<10.0 µg/mL
O=C(N/N=C/c1c(O)ccc2ccccc12)c1ccncc1 [drawing 27]	>25.0 µg/mL
Oc1ccccc1/C=N/Nc1ncnc2sc3c(c12)CCCC3 [drawing 28]	>25.0 µg/mL
Cc1nc(-c2ccccn2)nc(N(C)Cc2ccccc2)c1Cl [drawing 29]	<1.0 µg/mL
Oc1c(Br)cc(Cl)c2cccnc12 [drawing 31]	<5.0 µg/mL
Oc1c(I)cc(Cl)c2cccnc12 [drawing 32]	<10.0 µg/mL
